Results on six compounds are retold here after patent US9802985B2, “Pharmaceutical composition for treatment of the pulmonary form of altitude sickness caused by lack of oxygen and reduced air pressure” (APEPTICO FORSCHUNG UND E[…], priority 2012, dated 2017).

Data set [1] deals with interleukin-6 (IL-6) secretion in human full blood. Kind of data set: ex vivo release of interleukin-6 from fresh human full blood cultures (ELISA). Format: cell-based. The conditions noted are these: for Concentration of IL-6: human full blood, 24 hours, n=5. The protocol: In this study, fresh full blood was used; this is a recognized prediction model for the assessment of the inflammatory reaction in vivo.
The aim of this study was to determine the pro-inflammatory signal capacity of the peptide SEQ ID NO: 1.
Full blood (FB) cultures were carried out by pipetting 1 ml FB in depressions of 24-well plates. In each experiment, unstimulated and stimulated control cultures were included.
If possible, the substances and stimulants to be examined were always used in the same volume in each well in a given experiment, which is not greater than 10% of the total volume in a well. Unstimulated controls took place with PBS. Volume adjustment and dilutions for different treatments were likewise carried out with PBS.
The content of each well was mixed and the plates were incubated at 37° C. and 5% CO2 for 24 hours. After incubation, the content of each well was transferred into a fresh 1.5 ml microtube and centrifuged at 8000 to 9000×g for 15 minutes. The supernatant of each sample was divided individually to two 1.5 ml reaction vessels and stored at −20° C. until use.
Interleukin-6 was quantified by means of a specific ELISA (Human IL-6 ELISA-Set, BD Biosciences, Cat. No. 555220) using an anti-human-IL-6 antibody as capture antibody, a biotinylated anti-human IL-6 detection antibody, avidin horseradish peroxidise conjugate as enzyme reagent and recombinant IL-6 as standard. Absorption measurement at 450 nm was carried out with the Packard Fusion reader.
The results of each plate were stored and evaluated with the fusion data analysis software. […]
In general terms: ELISA stands for enzyme-linked immunosorbent assay.

Data set [2] has as its system pulmonary form of altitude sickness in rats. Kind of data set: experimental rat model of the pulmonary form of altitude sickness (physical activity under reduced oxygen and air pressure). It is filed as in vivo, rat (Sprague Dawley). The text has this: Physical exertion under conditions of reduced oxygen and air pressure, such as occur at high altitudes, are the 2 main factors which lead to the development of the pulmonary form of altitude sickness. Therefore, the selected rat model, in which the rats carried out physical activity under conditions of reduced oxygen and reduced air pressure, simulates a physically strenuous ascent to high altitudes. This takes place without carrying out a prior acclimatization. This corresponds to the scenario such as is to be found in the case of mountaineers who suffer from the pulmonary form of altitude sickness at high altitudes. In the model which was used, the rats develop the typical symptoms for the pulmonary form of altitude sickness, as is to be read in the “intensity of the pulmonary form of altitude sickness”, the increased protein concentration in the lung fluid and the histological appearance of the lung tissue. It is further to be noted that the lung damage in this model is not caused by administration of endotoxins, microbes or other agents which are damaging to the lung. […] Also, no specific strain of rat was used for this experiment. Therefore, this rat model is well suited to investigate a medicament for the treatment of the pulmonary form of altitude sickness.
Laboratory rats (Sprague Dawley rats) carried out physical activity through external stimulation for 48 hours under conditions of reduced oxygen and air pressure. Here, the air pressure was reduced to a value below 430 Torr, so that a height of over 4500 m was simulated. A prior acclimatization of the rats to the height of over 4500 m was not carried out. During this time, the rats were able to undertake a 15-20 minute pause every 4 hours in order to take in water and food. […] The lungs were then removed and the intensity of the pulmonary form of altitude sickness was determined (FIG. 1), the protein content in the lung fluid was determined (FIG. 2) and the histological appearance of the lung tissue was determined (FIG. 3).

In data set [3] the target is T1, amiloride-sensitive epithelial sodium ion channel (ENaC) (Homo sapiens, UniProt P37088+P51168+P51170).
T1 construct: the human alveolar epithelial cell line A549 was used; endogenous in cells; host or cells: A549 (human alveolar epithelial cell line)
The data set can be described thus: whole cell patch clamp test with A549 cells (Example 3). Format: cell-based. The settings on record: for effect on the Na+ flow (in words) / effect on the Na+ flow / ENaC (in words): whole cell patch clamp; for effect on the Na+ flow / ENaC (in words): 300 nM in bath solution, n=3. From the text:
According to patent application EP 2 009 023 A1, the so-called transepithelial electrical resistance (TEER) test was used for the screening of anti-lung oedema active ingredient candidates. The “TEER test” is not an established test for the prediction of fluid clearance in lung oedemas (this test can not be found in the relevant scientific literature and also has no relevance with regard to the cells being used (Calu-3 cells) in a model for gas exchange in the human lung). In the present example—in addition to the peptide according to the invention—the peptides […], […] and (cyclized) […] were investigated by means of a whole cell patch clamp assay, an established methodology for the measurement of ion movement over the cell membranes and especially for the measuring of the sodium transport over the cell membrane of alveolar epithelial cells (Eaton et al., Fed. Proc. 45 (1986), 2707; Hamill et al., Pflugers Arch. 391 (1981) 85-100. Here it was to be tested whether or not the peptides can activate the amiloride-sensitive epithelial sodium flow in lung cells.
The whole cell patch clamp test using A549 cells took place as described in Hazemi et al. (J. Med. Chem. 53 (2010), 8021-8029). […] In cases where an increase of the flow after addition of a given peptide was observed, an amiloride solution (to […] final concentration) was added to the bath solution—after the flow reached a stationary state —, in order to differentiate the amiloride-sensitive from the amiloride-insensitive flow. The amiloride-sensitive flow was then calculated by subtracting the flow value after addition of amiloride (amiloride-insensitive) from the flow value of the stationary state before the addition of amiloride. For each peptide, three experiments were carried out in different A549 cells (n=3).
On the technique in general: In patch-clamp work, channel activity is measured electrically.

The target in data set [4] is T2, amiloride-sensitive sodium ion channel (ENaC) (Homo sapiens, UniProt P37088+P51168+P51170).
T2 construct: Macroscopic sodium ion flows were derived from human lung epithelial cells A549; endogenous in cells; host or cells: A549 (human lung epithelial cells)
Kind of data set: whole cell patch clamp on A549 cells, amiloride-sensitive sodium ion flow, EC50 (Example 4). Format: cell-based. The text has this:
The activity of the individual peptides is indicated as EC50 (in nM).

The mark [5] stands for this setting: intratracheal 100, 300 and 600 μg/rat (especially 300 μg), 4 hours after administration.

“Also recorded” adds a separate entry of the source. No end group written: not given here.

T1 sequence (P51168 whole entry): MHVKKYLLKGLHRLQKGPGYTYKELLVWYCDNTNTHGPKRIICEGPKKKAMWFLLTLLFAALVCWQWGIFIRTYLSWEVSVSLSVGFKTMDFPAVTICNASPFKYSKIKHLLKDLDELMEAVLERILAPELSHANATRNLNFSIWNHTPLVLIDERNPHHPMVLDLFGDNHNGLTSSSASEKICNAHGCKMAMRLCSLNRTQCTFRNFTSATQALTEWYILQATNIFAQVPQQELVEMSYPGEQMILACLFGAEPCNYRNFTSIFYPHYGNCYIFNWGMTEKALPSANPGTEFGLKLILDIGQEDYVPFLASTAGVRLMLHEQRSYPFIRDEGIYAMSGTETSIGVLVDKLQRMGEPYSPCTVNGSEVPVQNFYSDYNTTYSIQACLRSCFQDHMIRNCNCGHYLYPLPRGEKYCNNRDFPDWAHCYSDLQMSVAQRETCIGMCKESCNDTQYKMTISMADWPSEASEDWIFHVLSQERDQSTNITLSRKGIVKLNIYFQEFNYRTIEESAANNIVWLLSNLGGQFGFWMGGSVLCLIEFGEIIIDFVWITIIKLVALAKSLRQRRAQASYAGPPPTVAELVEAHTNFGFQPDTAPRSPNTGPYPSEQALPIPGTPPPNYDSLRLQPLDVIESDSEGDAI
T1 sequence (P37088 whole entry): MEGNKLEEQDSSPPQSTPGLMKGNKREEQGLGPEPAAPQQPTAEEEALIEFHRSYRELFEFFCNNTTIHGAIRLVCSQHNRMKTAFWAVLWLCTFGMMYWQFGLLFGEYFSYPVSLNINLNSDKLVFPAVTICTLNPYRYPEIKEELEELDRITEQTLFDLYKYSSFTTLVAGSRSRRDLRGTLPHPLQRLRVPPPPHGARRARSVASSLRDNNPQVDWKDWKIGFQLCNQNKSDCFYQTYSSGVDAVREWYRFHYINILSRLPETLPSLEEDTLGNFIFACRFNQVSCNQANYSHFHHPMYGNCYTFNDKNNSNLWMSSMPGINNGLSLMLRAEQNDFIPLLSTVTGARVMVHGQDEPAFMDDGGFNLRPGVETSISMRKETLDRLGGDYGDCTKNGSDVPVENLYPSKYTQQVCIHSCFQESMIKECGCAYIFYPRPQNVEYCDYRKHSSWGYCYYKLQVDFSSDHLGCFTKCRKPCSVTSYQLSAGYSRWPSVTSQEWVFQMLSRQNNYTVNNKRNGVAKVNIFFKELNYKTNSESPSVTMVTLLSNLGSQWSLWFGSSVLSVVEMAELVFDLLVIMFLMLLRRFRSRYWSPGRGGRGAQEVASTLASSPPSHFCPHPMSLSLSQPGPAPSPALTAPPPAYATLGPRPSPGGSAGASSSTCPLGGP
T1 sequence (P51170 whole entry): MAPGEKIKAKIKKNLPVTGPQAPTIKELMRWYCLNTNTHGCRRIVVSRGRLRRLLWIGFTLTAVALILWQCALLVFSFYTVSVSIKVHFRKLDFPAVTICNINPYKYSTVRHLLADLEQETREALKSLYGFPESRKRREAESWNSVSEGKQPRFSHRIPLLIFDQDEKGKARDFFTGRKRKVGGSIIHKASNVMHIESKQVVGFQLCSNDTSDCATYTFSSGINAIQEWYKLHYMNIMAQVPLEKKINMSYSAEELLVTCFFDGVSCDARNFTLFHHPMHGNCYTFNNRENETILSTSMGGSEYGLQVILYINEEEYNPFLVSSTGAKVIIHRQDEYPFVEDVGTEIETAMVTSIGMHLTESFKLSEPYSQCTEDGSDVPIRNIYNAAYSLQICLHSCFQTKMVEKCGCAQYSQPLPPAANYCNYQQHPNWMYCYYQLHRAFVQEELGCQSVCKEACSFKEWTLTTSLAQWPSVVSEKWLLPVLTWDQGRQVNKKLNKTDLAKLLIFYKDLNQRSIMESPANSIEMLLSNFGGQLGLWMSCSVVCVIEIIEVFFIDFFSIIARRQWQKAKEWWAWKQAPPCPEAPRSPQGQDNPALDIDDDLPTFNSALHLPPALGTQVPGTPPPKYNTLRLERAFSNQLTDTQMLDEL
T2 sequence (P37088 whole entry): as the sequence (P37088 whole entry) above
T2 sequence (P51168 whole entry): as the sequence (P51168 whole entry) above
T2 sequence (P51170 whole entry): as the sequence (P51170 whole entry) above

Regarding `C[C@@H]1NC(=O)CNC(=O)[C@H](CCC(=O)O)NC(=O)[C@@H]2CCCN2C(=O)[C@H]([C@@H](C)O)NC(=O)[C@H](CCC(=O)O)NC(=O)[C@H](CCCNC(=N)N)NC(=O)[C@H](CCC(N)=O)NC(=O)CNC(=O)[C@@H](N)CSSC[C@@H](C(=O)O)NC(=O)[C@H](Cc2ccc(O)cc2)NC(=O)[C@H](Cc2c[nH]c3ccccc23)NC(=O)[C@@H]2CCCN2C(=O)[C@H](CCCCN)NC(=O)[C@H](C)NC(=O)[C@H](CCC(=O)O)NC1=O` [SEQ ID NO: 1], the “induction of IL-6 secretion (in words)” value in data set [1] (human full blood cultures of five healthy donors, all tested concentrations (10 μg/ml to 1 ng/ml)) is given as “did not induce any detectable amount of IL-6 secretion; also recorded: induced no detectable level of IL-6”. Moreover, in data set [1] (human full blood ex vivo model), the “TNF receptor binding activity (concluded from absent IL-6 release)” value is given as “does not have TNF receptor binding activity”. The “Concentration of IL-6” value in data set [1], in data set [1] (test concentration 1 ng/ml), in data set [1] (test concentration 3 ng/ml) and in data set [1] (test concentration 1 mg/ml) was “less than 0.5 pg/ml” each time. Further, in data set [2] (4 hours after intratracheal administration), the “histological appearance of lung tissue” value is listed as “comparable with healthy lung tissue of the control rats”. Further, the “intensity of the pulmonary form of altitude sickness” value in data set [2] (setting [5]) is recorded as “led to reduction of the intensity of the pulmonary form of altitude sickness”. Besides, the “protein concentration in the lung fluid” value in data set [2] (setting [5]) is listed as “led to reduction of the protein concentration in the lung fluid”. For the same compound, the “amiloride-sensitive Na+ flow after addition of the peptide” value in data set [3] (240 nM, increased from 50 pA, flow minus amiloride-insensitive flow) is reported as 1037 pA. The “effect on the Na+ flow (in words)” value is on record as “induced an increase of the sodium flow over that of the control value” in data set [3] (240 nM in bath solution) and “immediate intensifying effect” in data set [3] (240 nM in bath solution, listed as AP301). In addition, in data set [3] (whole cell, clamped at -100 mV, 240 nM in bath solution, control value 86 pA±5 pA), the “active Na+ flow after addition of the peptide (maximum)” value is 1073±15 pA.
For `N=C(N)NC(=O)c1nc(Cl)c(N)nc1N` [amiloride], in data set [3] (after AP301 240 nM, amiloride 100 mM in bath solution), the “Na+ flow after subsequent addition of amiloride” value worked out at 36 pA.
Take CGQREAPAGAAAKPWYC [SEQ ID NO: 19]: the “EC50 (nM), cellular amiloride-sensitive sodium ion flow” value in data set [4] (A549 cells, whole cell patch clamp, concentration at 50% of maximum increase of flow) was “No activity”. Also, the “activity on the amiloride-sensitive sodium ion channel (in words)” value in data set [4] (A549 lung cells) is given as “not active”.
For “CGTKPIELGPDEPKAVC (not fully specified (bridges); also: cyclic)”, in data set [3], the “effect on the Na+ flow / ENaC (in words)” value is given as “no activating effect; also recorded: no effect on the flow; also recorded: none of the other three peptides had an influence on the flow”.
Same read-out and setting: under QRETPEGAEAKPWY stands “no activating effect; also recorded: no effect on the flow; also recorded: none of the other three peptides had an influence on the flow”; under TKPIELGPDEPKAV, “no activating effect; also recorded: no effect on the flow; also recorded: none of the other three peptides had an influence on the flow”.
